From the supplement of paper PMC6315032

What was measured:
Test in all cases: apparent dissociation constant (pKDapp, Kinobeads competition, Cheng-Prusoff corrected) (-log10 M); higher = tighter binding
Conditions in all cases: affinity matrix / lysate: Kinobeads, mixed HEK293/K-562/placenta lysate
PIP4K2B = PIP4K2B (UniProt P78356)
PIP4K2A = PIP4K2A (UniProt P48426)
PIM2 = PIM2 (UniProt Q9P1W9)
MAP2K4 = MAP2K4 (UniProt P45985)
MAP3K6 = MAP3K6 (UniProt O95382)
PIP5K3 = PIP5K3 (UniProt Q9Y2I7)
MAP2K6 = MAP2K6 (UniProt P52564)
MAP2K6, sequence (P52564 whole entry): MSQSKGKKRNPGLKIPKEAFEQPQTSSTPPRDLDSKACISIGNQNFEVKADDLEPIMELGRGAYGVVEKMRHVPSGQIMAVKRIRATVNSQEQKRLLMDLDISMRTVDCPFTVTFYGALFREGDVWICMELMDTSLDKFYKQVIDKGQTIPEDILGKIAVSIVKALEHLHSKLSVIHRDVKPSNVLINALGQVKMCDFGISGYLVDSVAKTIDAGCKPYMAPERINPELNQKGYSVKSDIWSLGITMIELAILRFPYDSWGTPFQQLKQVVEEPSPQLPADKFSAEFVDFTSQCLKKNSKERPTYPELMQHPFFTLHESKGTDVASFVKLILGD

AURKC = AURKC (UniProt Q9UQB9)
MAP2K5 = MAP2K5 (UniProt Q13163)
TESK1 = TESK1 (UniProt Q15569)
RPS6KA4 = RPS6KA4 (UniProt O75676)
CHUK = CHUK (UniProt O15111)
CABC1 = CABC1 (UniProt Q8NI60)
CDK2 = CDK2 (UniProt P24941)
BRSK1 = BRSK1 (UniProt Q8TDC3)
BRSK1, sequence (Q8TDC3 whole entry): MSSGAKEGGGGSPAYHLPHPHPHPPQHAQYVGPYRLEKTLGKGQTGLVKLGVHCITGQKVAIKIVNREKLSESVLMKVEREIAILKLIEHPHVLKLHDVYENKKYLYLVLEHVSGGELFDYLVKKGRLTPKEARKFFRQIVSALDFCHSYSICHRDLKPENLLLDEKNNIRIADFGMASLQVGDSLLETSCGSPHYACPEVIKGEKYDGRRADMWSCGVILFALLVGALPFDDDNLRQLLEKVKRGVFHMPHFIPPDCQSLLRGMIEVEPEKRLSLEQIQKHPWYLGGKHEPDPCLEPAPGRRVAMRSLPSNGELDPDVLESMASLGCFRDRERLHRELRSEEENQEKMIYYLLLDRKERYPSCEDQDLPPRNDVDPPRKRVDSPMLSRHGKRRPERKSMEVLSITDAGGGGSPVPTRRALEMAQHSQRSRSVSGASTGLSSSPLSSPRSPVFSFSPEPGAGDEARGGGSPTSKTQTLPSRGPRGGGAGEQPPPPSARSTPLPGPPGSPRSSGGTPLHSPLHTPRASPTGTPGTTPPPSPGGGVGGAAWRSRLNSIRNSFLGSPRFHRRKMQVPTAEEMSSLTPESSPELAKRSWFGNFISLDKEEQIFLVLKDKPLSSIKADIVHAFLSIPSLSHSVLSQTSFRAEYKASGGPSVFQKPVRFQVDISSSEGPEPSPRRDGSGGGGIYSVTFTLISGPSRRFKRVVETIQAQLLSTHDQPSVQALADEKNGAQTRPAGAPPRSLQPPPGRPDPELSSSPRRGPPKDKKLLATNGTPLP

IRAK4 = IRAK4 (UniProt Q9NWZ3)
IRAK4, sequence (Q9NWZ3 whole entry): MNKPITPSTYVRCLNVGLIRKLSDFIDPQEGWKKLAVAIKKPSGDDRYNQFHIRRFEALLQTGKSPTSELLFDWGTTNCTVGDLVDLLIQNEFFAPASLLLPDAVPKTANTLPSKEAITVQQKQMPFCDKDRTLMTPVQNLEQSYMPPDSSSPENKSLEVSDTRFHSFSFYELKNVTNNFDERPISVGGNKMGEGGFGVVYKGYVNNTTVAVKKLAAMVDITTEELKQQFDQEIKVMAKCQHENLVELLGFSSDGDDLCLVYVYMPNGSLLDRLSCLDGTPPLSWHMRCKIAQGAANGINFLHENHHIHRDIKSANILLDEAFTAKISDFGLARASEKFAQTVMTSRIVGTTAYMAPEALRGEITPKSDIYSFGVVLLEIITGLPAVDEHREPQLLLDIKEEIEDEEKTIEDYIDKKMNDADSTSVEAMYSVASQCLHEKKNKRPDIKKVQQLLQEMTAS

EPHA3 = EPHA3 (UniProt P29320)
LATS1 = LATS1 (UniProt O95835)
LATS1, sequence (O95835 whole entry): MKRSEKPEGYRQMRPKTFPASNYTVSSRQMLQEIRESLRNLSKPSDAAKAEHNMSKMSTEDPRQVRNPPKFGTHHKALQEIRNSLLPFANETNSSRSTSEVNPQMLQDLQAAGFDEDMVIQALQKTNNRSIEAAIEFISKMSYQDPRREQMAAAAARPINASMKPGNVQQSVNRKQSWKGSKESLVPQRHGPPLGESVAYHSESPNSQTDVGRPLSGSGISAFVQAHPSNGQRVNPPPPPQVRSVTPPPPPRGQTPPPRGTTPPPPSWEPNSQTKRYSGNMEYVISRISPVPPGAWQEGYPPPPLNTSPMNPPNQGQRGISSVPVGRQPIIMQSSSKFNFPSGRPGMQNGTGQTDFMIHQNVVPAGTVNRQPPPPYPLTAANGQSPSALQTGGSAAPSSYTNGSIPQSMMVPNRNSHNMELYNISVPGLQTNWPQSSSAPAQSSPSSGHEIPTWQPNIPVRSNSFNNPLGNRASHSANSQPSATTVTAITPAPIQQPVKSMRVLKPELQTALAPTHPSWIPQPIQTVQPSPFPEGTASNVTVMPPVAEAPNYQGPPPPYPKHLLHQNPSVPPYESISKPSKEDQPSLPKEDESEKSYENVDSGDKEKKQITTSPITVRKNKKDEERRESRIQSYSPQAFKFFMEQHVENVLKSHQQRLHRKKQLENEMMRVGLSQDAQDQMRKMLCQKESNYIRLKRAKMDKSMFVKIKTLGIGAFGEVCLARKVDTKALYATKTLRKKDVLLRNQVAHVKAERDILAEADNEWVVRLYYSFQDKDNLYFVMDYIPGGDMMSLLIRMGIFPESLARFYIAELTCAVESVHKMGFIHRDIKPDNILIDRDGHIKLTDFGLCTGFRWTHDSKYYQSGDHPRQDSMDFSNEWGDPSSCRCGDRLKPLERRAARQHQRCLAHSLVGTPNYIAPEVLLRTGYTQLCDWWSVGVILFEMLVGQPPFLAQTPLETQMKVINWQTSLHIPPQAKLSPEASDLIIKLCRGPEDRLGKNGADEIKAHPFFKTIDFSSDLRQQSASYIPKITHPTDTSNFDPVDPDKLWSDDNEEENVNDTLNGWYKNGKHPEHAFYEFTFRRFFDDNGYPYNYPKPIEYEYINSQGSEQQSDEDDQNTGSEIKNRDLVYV

MAP4K1 = MAP4K1 (UniProt Q92918)
MAP3K10 = MAP3K10 (UniProt Q02779)
MAP3K11 = MAP3K11 (UniProt Q16584)
CAMK1 = CAMK1 (UniProt Q14012)
WNK1 = WNK1 (UniProt Q9H4A3)
RIPK4 = RIPK4 (UniProt P57078)
MAPK10 = MAPK10 (UniProt P53779)
PRKACA = PRKACA (UniProt P17612)
ADCK4 = ADCK4 (UniProt Q96D53)
DYRK1B = DYRK1B (UniProt Q9Y463)
RNASEL = RNASEL (UniProt Q05823)
ADCK5 = ADCK5 (UniProt Q3MIX3)
CDK9 = CDK9 (UniProt P50750)
MAPK15 = MAPK15 (UniProt Q8TD08)
DDR2 = DDR2 (UniProt Q16832)
PRKACB = PRKACB (UniProt P22694)

Measured: apparent dissociation constant (-log10 M)

MAP3K6, sequence (O95382 whole entry): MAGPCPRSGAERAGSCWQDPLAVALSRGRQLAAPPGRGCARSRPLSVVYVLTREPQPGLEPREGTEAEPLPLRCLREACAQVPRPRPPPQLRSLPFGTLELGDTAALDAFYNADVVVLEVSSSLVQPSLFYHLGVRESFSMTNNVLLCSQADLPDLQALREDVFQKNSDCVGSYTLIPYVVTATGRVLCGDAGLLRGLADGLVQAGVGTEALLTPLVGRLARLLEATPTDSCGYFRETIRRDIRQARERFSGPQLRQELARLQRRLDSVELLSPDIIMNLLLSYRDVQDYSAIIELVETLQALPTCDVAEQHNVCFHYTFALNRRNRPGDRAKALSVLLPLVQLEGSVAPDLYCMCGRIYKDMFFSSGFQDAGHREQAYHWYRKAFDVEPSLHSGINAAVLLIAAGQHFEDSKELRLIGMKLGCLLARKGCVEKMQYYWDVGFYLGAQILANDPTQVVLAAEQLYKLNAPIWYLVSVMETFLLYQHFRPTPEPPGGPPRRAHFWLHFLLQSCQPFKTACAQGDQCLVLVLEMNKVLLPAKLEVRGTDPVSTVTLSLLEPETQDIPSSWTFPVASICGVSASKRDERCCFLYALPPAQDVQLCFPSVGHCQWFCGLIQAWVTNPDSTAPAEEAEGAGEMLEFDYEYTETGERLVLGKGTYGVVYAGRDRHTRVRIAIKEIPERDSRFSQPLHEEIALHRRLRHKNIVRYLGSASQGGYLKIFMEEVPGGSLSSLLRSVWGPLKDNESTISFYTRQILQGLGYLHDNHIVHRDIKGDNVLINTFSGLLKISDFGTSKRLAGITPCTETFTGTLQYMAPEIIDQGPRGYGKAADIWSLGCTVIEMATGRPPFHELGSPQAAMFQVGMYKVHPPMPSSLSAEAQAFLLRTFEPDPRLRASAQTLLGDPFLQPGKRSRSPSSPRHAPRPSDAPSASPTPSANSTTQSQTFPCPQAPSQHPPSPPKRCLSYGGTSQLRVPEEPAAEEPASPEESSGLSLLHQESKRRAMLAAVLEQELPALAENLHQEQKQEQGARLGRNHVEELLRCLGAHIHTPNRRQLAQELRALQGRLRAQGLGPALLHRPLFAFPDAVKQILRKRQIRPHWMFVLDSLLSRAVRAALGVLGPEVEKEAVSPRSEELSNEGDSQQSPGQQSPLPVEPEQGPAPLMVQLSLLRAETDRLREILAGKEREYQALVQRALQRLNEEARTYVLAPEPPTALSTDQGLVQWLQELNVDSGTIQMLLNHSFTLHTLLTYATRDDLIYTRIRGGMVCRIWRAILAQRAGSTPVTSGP
PIP4K2B, sequence (P78356 whole entry): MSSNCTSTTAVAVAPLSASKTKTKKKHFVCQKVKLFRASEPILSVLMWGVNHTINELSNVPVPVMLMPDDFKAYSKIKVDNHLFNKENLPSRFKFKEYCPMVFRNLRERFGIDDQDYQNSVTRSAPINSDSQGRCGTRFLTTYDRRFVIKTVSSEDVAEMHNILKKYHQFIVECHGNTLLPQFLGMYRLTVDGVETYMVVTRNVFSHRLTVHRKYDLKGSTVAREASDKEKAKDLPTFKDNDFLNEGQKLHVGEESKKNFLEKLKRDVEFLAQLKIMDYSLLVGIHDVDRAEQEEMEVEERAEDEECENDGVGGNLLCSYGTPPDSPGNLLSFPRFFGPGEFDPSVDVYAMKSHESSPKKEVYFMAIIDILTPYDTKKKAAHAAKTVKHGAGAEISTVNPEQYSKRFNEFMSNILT
PIP4K2A, sequence (P48426 whole entry): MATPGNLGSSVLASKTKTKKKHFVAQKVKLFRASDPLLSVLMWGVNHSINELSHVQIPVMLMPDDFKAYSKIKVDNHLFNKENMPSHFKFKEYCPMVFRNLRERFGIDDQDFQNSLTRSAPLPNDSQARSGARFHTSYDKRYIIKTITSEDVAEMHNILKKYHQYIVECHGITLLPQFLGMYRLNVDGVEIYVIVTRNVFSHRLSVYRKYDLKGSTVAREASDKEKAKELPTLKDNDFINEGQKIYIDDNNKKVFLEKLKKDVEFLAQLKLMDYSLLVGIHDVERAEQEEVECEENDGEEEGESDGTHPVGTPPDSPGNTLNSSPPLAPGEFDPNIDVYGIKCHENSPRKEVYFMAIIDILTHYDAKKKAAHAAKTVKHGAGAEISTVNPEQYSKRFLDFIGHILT

COc1ccc(-c2ccc3c(N4CCOC[C@@H]4C)nc(N4CCOC[C@@H]4C)nc3n2)cc1CO [AZD8055]
< 6: PIP4K2B | PIP4K2A | PIM2 | MAP2K4 | MAP3K6 | PIP5K3 | MAP2K6 | AURKC | MAP2K5 | TESK1 | RPS6KA4 | CHUK | CABC1 | CDK2 | BRSK1 | IRAK4 | EPHA3 | LATS1

CCNC(=O)Nc1ccc(-c2nc(N3CCOC[C@@H]3C)c3c(n2)C(C)(C)S(=O)(=O)C3)cc1 [CZ415]
not listed: AURKC
< 6: all other assays above
